Assays:
[1] = molecular target: Serine/threonine-protein kinase SIK1 (Homo sapiens, UniProt P57059); experiment: SIK(SIK1LHY1) Takeda global kinase panel
[2] = molecular target: Casein kinase I isoform gamma-3 (Homo sapiens, UniProt Q9Y6M4); experiment: CK1gamma3(C1G3LGI5) Takeda global kinase panel
[3] = molecular target: Aurora kinase A (Homo sapiens, UniProt O14965); experiment: AurA [Aur2(AURALGF1)] Takeda global kinase panel
[4] = molecular target: Epidermal growth factor receptor (Homo sapiens, UniProt P00533); experiment: EGFR(EGFRMGB1) Takeda global kinase panel
[5] = molecular target: Serine/threonine-protein kinase B-raf (Homo sapiens, UniProt P15056); experiment: BRAF(BRAFLGY1) Takeda global kinase panel
[6] = molecular target: Serine/threonine-protein kinase MRCK alpha (Homo sapiens, UniProt Q5VT25); experiment: MRCKalpha(CD4ALGY1) Takeda global kinase panel
Chain of Serine/threonine-protein kinase MRCK alpha (Q5VT25 whole entry): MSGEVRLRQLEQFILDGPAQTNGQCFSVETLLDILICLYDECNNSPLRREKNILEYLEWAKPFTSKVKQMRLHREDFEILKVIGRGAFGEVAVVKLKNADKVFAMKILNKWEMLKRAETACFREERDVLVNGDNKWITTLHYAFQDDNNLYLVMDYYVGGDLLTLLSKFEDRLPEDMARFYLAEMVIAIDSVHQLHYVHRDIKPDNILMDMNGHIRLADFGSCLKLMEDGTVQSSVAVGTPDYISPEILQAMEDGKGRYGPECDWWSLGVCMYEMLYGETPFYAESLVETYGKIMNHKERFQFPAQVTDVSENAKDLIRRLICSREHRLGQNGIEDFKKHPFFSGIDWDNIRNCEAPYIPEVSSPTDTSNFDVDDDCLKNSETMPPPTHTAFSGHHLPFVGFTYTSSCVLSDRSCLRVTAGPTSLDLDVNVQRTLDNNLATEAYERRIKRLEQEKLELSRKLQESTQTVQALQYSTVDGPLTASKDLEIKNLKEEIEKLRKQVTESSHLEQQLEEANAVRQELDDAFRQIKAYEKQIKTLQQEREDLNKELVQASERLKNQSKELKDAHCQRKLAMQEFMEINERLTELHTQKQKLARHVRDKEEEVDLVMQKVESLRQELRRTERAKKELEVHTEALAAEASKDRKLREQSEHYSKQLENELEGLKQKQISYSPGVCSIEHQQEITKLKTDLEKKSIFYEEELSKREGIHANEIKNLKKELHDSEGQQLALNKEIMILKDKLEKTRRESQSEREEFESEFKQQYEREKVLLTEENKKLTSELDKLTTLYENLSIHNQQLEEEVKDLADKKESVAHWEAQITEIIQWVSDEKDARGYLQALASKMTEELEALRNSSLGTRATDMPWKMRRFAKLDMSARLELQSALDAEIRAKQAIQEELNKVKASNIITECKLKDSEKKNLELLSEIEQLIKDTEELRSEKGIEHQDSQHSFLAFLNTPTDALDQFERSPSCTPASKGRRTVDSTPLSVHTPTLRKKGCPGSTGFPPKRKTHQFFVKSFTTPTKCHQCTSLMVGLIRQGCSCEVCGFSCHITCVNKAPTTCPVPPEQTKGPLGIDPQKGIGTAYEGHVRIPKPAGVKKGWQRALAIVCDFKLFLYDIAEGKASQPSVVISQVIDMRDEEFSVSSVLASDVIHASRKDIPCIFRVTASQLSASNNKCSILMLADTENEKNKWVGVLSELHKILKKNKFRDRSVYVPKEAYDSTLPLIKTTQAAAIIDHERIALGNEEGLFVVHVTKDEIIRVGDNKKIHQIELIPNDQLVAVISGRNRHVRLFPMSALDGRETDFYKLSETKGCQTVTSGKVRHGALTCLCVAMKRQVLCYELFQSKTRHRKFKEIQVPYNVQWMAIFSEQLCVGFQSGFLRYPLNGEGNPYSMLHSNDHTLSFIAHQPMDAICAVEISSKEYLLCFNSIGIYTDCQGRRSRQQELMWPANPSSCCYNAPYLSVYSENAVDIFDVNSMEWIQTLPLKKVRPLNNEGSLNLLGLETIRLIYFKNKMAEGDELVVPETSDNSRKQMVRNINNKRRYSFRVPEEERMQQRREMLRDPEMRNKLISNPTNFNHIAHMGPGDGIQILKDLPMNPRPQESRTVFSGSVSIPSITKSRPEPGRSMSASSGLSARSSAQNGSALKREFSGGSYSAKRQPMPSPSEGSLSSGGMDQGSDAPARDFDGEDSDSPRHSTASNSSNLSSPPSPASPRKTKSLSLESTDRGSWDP

[7] = molecular target: Mitogen-activated protein kinase kinase kinase 20 (Homo sapiens, UniProt Q9NYL2); experiment: ZAK(ZAK1LGY1) Takeda global kinase panel
Chain of Mitogen-activated protein kinase kinase kinase 20 (Q9NYL2 whole entry): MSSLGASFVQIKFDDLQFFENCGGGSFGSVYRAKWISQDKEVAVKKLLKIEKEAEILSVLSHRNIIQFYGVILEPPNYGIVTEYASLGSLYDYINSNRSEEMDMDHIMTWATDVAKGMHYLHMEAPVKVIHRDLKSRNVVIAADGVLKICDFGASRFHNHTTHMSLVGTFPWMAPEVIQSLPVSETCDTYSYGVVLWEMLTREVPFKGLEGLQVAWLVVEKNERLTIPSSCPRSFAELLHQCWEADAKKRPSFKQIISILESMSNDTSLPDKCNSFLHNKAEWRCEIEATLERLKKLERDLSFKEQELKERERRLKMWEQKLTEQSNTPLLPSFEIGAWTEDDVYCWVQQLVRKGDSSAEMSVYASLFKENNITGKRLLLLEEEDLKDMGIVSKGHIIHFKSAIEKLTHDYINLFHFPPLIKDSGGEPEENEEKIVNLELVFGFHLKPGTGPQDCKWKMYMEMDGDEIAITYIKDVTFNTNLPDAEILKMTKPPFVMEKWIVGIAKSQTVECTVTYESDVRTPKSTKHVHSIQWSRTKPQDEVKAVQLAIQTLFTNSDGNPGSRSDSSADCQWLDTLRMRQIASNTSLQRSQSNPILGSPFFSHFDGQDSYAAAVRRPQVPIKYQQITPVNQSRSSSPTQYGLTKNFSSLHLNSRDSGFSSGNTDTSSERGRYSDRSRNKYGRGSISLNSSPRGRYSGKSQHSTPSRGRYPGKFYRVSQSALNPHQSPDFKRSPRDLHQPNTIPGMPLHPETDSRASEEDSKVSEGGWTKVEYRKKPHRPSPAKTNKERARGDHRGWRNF

[8] = molecular target: Protein kinase C zeta type (Homo sapiens, UniProt Q05513); experiment: PKCzeta(PRKZLGP1) Takeda global kinase panel
[9] = molecular target: Endothelin receptor type B (Homo sapiens) (UniProt P24530); details: Compound concentration 10.0 uM
Chain of Endothelin receptor type B (Homo sapiens) (P24530 whole entry): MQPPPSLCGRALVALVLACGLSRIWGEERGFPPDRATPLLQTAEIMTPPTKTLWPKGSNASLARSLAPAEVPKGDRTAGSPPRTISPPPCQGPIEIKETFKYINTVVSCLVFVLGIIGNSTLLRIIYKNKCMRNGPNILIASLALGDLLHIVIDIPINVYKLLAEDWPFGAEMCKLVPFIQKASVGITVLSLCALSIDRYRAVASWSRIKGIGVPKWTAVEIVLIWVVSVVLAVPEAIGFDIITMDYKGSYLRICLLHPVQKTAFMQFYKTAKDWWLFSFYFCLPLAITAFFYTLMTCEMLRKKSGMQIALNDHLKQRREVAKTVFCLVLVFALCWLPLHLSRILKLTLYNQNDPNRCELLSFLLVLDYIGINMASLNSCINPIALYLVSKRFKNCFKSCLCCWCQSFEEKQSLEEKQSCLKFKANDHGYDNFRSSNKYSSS

[10] = molecular target: Dual specificity protein kinase CLK2 (Homo sapiens, UniProt P49760); experiment: CLK2(CLK2LGF1) Takeda global kinase panel
[11] = molecular target: Serine/threonine-protein kinase ULK3 (Homo sapiens, UniProt Q6PHR2); experiment: ULK3(ULK3LGF1) Takeda global kinase panel
[12] = molecular target: Alpha-2B adrenergic receptor (Homo sapiens, UniProt P18089); experiment: GPCRScan assay: inhibition of Alpha2B; set-up: radioligand conc. used [nm] 1.5 – 2.0, parental cells HEKT
Chain of Alpha-2B adrenergic receptor (P18089 whole entry): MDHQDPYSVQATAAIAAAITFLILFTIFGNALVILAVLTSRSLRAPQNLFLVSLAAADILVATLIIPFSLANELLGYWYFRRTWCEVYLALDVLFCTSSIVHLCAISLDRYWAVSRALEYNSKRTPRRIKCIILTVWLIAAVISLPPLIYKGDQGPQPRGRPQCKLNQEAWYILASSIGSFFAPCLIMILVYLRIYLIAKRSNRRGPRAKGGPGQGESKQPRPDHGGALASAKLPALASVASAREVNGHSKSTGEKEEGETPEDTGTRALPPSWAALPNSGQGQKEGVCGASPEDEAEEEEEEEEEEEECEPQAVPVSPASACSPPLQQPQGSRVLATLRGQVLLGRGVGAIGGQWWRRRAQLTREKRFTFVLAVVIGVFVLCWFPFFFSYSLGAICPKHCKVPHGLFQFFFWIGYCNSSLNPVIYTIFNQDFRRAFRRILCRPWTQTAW

[13] = molecular target: Dual specificity tyrosine-phosphorylation-regulated kinase 4 (Homo sapiens, UniProt Q9NR20); experiment: DYRK4(DYR4LHY1) Takeda global kinase panel
[14] = molecular target: Beta-1 adrenergic receptor (Homo sapiens) (UniProt P08588); details: Compound concentration 10.0 uM
[15] = molecular target: Tyrosine-protein kinase SYK (Homo sapiens, UniProt P43405); experiment: Syk(SYK1LHY1) Takeda global kinase panel
[16] = molecular target: Protein kinase C alpha type (Homo sapiens, UniProt P17252); experiment: PKCalpha(PRKALGY1) Takeda global kinase panel
[17] = molecular target: Sigma intracellular receptor 2 (Homo sapiens, UniProt Q5BJF2); details: Compound concentration 10.0 uM
Chain of Sigma intracellular receptor 2 (Q5BJF2 whole entry): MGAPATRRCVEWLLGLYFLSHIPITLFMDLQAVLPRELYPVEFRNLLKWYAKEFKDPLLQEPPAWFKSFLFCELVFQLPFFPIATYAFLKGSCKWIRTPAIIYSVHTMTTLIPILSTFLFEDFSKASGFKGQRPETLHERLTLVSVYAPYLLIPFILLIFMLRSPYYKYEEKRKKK

[18] = molecular target: D(1A) dopamine receptor (Homo sapiens) (UniProt P21728); details: Compound concentration 10.0 uM
[19] = molecular target: NUAK family SNF1-like kinase 2 (Homo sapiens, UniProt Q9H093); experiment: NuaK2(NUA2LHY1) Takeda global kinase panel
Chain of NUAK family SNF1-like kinase 2 (Q9H093 whole entry): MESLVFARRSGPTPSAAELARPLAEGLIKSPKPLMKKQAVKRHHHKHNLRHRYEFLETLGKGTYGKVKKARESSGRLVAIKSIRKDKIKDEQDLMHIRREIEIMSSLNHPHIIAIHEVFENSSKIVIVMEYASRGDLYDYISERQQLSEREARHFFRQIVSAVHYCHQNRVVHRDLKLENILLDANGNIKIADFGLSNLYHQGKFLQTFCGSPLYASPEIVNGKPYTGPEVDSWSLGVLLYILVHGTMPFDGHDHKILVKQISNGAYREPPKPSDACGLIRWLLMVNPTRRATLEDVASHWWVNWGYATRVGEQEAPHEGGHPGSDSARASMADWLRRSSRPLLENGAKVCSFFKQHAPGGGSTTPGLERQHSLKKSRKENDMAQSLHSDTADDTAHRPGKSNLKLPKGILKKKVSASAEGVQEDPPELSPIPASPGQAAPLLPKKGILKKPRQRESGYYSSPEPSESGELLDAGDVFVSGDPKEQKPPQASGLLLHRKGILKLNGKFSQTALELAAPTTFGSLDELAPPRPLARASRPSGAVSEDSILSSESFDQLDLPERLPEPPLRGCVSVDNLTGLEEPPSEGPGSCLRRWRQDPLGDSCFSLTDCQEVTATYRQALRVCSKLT

[20] = molecular target: Tyrosine-protein kinase Blk (Homo sapiens, UniProt P51451); experiment: BLK(BLK1CGF1) Takeda global kinase panel
[21] = molecular target: Receptor tyrosine-protein kinase erbB-4 (Homo sapiens, UniProt Q15303); experiment: HER4(ERB4CGF1) Takeda global kinase panel
[22] = molecular target: RAC-beta serine/threonine-protein kinase (Homo sapiens, UniProt P31751); experiment: Akt2 [PKBbeta(AKT2CGY1)] Takeda global kinase panel
[23] = molecular target: Homeodomain-interacting protein kinase 2 (Homo sapiens, UniProt Q9H2X6); experiment: HIPK2(HIP2LGY1) Takeda global kinase panel
[24] = molecular target: MAP/microtubule affinity-regulating kinase 3 (Homo sapiens, UniProt P27448); experiment: MARK3(MAR3LGO5) Takeda global kinase panel
[25] = molecular target: Histamine H3 receptor (Homo sapiens) (UniProt Q9Y5N1); details: Compound concentration 10.0 uM
[26] = molecular target: Calcium/calmodulin-dependent protein kinase type IV (Homo sapiens, UniProt Q16566); experiment: CaMK4(CAM4LGY1) Takeda global kinase panel
[27] = molecular target: Serine/threonine-protein kinase DCLK3 (Homo sapiens, UniProt Q9C098); experiment: DCAMKL3(DCL3LGP1) Takeda global kinase panel
[28] = organism: Mus musculus; experiment: Inhibition of Phorbol Ester at 10 µM in the Eurofins-Panlabs radioligand binding assay (Eurofins_assay_264500); set-up: ligand concentration 3 nM; details: Compound concentration 10.0 uM
[29] = molecular target: STE20-like serine/threonine-protein kinase (Homo sapiens, UniProt Q9H2G2); experiment: SLK(SLK1LGRJ) Takeda global kinase panel
[30] = molecular target: Dual specificity mitogen-activated protein kinase kinase 6 (Homo sapiens, UniProt P52564); experiment: MKK6 [MAP2K6(M2K6LGF1)] Takeda global kinase panel
[31] = molecular target: Calcium/calmodulin-dependent protein kinase type 1B (Homo sapiens, UniProt Q6P2M8); experiment: CaMK1beta(PNCKLGRI) Takeda global kinase panel
[32] = molecular target: Tyrosine-protein kinase Mer (Homo sapiens, UniProt Q12866); experiment: Mer(MERTLGF1) Takeda global kinase panel
[33] = molecular target: Sodium-dependent noradrenaline transporter (Homo sapiens) (UniProt P23975); details: Compound concentration 10.0 uM
[34] = molecular target: Serine/threonine-protein kinase 32C (Homo sapiens, UniProt Q86UX6); experiment: YANK3(S32CLGI1) Takeda global kinase panel
[35] = molecular target: Ephrin type-A receptor 5 (Homo sapiens, UniProt P54756); experiment: EphA5(EPA5MGF1) Takeda global kinase panel
[36] = molecular target: Bone morphogenetic protein receptor type-2 (Homo sapiens, UniProt Q13873); experiment: BMPR2(BMR2LGN1) Takeda global kinase panel
[37] = molecular target: Sigma non-opioid intracellular receptor 1 (Homo sapiens) (UniProt Q99720); experiment: Sigma 1 Eurofins-Panlabs radioligand binding assay; set-up: ligand concentration 15 nM; details: Compound concentration 10.0 uM
Chain of Sigma non-opioid intracellular receptor 1 (Homo sapiens) (Q99720 whole entry): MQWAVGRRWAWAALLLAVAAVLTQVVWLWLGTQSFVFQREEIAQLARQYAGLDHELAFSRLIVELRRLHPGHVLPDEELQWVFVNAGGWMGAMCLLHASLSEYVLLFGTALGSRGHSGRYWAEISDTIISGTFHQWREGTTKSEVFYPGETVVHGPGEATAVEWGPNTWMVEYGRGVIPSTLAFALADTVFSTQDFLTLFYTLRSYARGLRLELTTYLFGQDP

[38] = molecular target: cAMP-dependent protein kinase catalytic subunit PRKX (Homo sapiens, UniProt P51817); experiment: PRKX(PRKXLGH5) Takeda global kinase panel
[39] = molecular target: Serine/threonine-protein kinase 32B (Homo sapiens, UniProt Q9NY57); experiment: YANK2(S32BLGY2) Takeda global kinase panel
[40] = molecular target: Homeodomain-interacting protein kinase 1 (Homo sapiens, UniProt Q86Z02); experiment: HIPK1(HIP1LGF1) Takeda global kinase panel
[41] = molecular target: Ephrin type-A receptor 1 (Homo sapiens, UniProt P21709); experiment: EphA1(EPA1LGY1) Takeda global kinase panel
[42] = molecular target: Serine/threonine-protein kinase BRSK1 (Homo sapiens, UniProt Q8TDC3); experiment: BRSK1(BRS1LGA1) Takeda global kinase panel
[43] = molecular target: Mitogen-activated protein kinase kinase kinase 5 (Homo sapiens, UniProt Q99683); experiment: ASK [MAP3K5(M3K5LGA1)] Takeda global kinase panel
[44] = molecular target: Cyclin-dependent kinase 8 (Homo sapiens, UniProt P49336); experiment: CDK8(CDK8CGS1) Takeda global kinase panel
[45] = molecular target: Serine/threonine-protein kinase ICK (Homo sapiens, UniProt Q9UPZ9); experiment: ICK(ICK1LGP1) Takeda global kinase panel
[46] = molecular target: Histamine H1 receptor (Homo sapiens) (UniProt P35367); details: Compound concentration 10.0 uM

Chain of Casein kinase I isoform gamma-3 (Q9Y6M4 whole entry, canonical isoform): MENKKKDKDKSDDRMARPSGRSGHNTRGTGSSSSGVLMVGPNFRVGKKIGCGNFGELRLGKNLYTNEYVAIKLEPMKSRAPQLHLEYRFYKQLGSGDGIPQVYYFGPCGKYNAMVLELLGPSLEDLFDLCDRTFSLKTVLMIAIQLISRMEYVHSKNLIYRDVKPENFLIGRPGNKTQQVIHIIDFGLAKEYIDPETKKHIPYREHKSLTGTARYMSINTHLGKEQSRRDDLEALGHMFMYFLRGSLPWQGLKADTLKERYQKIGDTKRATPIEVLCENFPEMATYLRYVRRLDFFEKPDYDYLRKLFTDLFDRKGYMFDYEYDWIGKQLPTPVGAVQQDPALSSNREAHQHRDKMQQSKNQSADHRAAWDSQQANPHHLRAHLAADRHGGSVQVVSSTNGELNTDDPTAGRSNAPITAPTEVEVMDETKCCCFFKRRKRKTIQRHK

CN1C(=O)[C@@H](N2CCc3c(nn(Cc4ccccc4)c3Br)C2=O)COc2ccccc21 [TP-030-2]
IC50 [1]: 1000 nM
IC50 [2]: 1000 nM
IC50 [3]: 1000 nM
IC50 [4]: 1000 nM
IC50 [5]: 1000 nM
IC50 [6]: 1000 nM
IC50 [7]: 1000 nM
IC50 [8]: 1000 nM
inhibition [9]: -7%
IC50 [10]: 1000 nM
IC50 [11]: 1000 nM
Ki ([12]; read-out: Ki): 2870 nM
Ki ([12]; read-out: pKi (converted)): 2820 nM
IC50 [13]: 1000 nM
inhibition [14]: -4%
IC50 [15]: 1000 nM
IC50 [16]: 1000 nM
inhibition [17]: 53.9%
inhibition [18]: 9%
IC50 [19]: 1000 nM
IC50 [20]: 1000 nM
IC50 [21]: 1000 nM
IC50 [22]: 1000 nM
IC50 [23]: 1000 nM
IC50 [24]: 1000 nM
inhibition [25]: 5%
IC50 [26]: 1000 nM
IC50 [27]: 1000 nM
inhibition [28]: 7%
IC50 [29]: 1000 nM
IC50 [30]: 1000 nM
IC50 [31]: 1000 nM
IC50 [32]: 1000 nM
inhibition [33]: -7.47%
IC50 [34]: 1000 nM
IC50 [35]: 1000 nM
IC50 [36]: 1000 nM
inhibition [37]: 13%
IC50 [38]: 1000 nM
IC50 [39]: 1000 nM
IC50 [40]: 1000 nM
IC50 [41]: 1000 nM
IC50 [42]: 1000 nM
IC50 [43]: 1000 nM
IC50 [44]: 1000 nM
IC50 [45]: 1000 nM
inhibition [46]: 9.99%

From ChEMBL document CHEMBL4507326, “Data for DCP probe TP-030-2” (2021)
